≈ marks a conversion by molar mass, not a printed value.
Key:
Botryosphaeria dothidea = test: Antifungal activity against Botryosphaeria dothidea assessed as reduction in fungal growth at 50 ug/ml relative to control; type: functional
Phomopsis = test: Antifungal activity against Phomopsis assessed as reduction in fungal growth at 50 ug/ml relative to control; type: functional
Botrytis cinerea = test: Antifungal activity against Botrytis cinerea assessed as reduction in fungal growth at 50 ug/ml relative to control; type: functional
Aspergillus flavus = test: Antimicrobial activity against Aspergillus flavus assessed as zone of inhibition; type: functional
Candida tropicalis = test: Antifungal activity against Candida tropicalis assessed as zone of inhibition by disc diffusion method; type: functional
Aspergillus niger [1] = test: Antifungal activity against Aspergillus niger assessed as zone of inhibition by disc diffusion method; type: functional
Candida albicans [2] = test: Antifungal activity against Candida albicans assessed as reduction in fungal growth incubated for 48 hrs by broth micro-dilution method; type: functional
Candida albicans [3] = test: Antifungal activity against Candida albicans MTCC 227 by disc diffusion method; type: functional, organism-based
Aspergillus niger [4] = test: Antifungal activity against Aspergillus niger MTCC 282 by disc diffusion method; type: functional, organism-based
Cryptococcus neoformans = test: Antifungal activity against Cryptococcus neoformans assessed as reduction in fungal growth incubated for 24 hrs by broth microdilution method; type: functional
Candida albicans [5] = test: Antifungal activity against Candida albicans MTCC 227 assessed as inhibition of fungal growth incubated for 24 hrs; type: functional
Candida albicans [6] = test: Antifungal activity against Candida albicans MTCC 1637 assessed as inhibition of fungal growth incubated for 24 hrs; type: functional
Candida albicans [7] = test: Antifungal activity against Candida albicans MTCC 3017 assessed as inhibition of fungal growth incubated for 24 hrs; type: functional
Candida albicans [8] = test: Antifungal activity against Candida albicans MTCC 3018 assessed as inhibition of fungal growth incubated for 24 hrs; type: functional
Candida albicans [9] = test: Antifungal activity against Candida albicans MTCC 4748 assessed as inhibition of fungal growth incubated for 24 hrs; type: functional
Candida albicans [10] = test: Antifungal activity against Candida albicans MTCC 7315 assessed as inhibition of fungal growth incubated for 24 hrs; type: functional
Candida parapsilosis = test: Antifungal activity against Candida parapsilosis MTCC 1744 assessed as inhibition of fungal growth incubated for 24 hrs; type: functional; conditions: Lodderomyces parapsilosis
Nakaseomyces glabratus = test: Antifungal activity against Candida glabrata MTCC 3019 assessed as inhibition of fungal growth incubated for 24 hrs; type: functional
Pichia kudriavzevii = test: Antifungal activity against Pichia kudriavzevii MTCC 3020 assessed as inhibition of fungal growth incubated for 24 hrs; type: functional
Candida albicans [11] = test: Antifungal activity against Candida albicans ATCC 10231 assessed as zone of inhibition incubated for 24 hrs by disc diffusion method; type: functional
Candida albicans [12] = test: Antifungal activity against Candida albicans assessed as zone of inhibition; type: functional
Aspergillus niger [13] = test: Antifungal activity against Aspergillus niger assessed as zone of inhibition; type: functional
Candida albicans [14] = test: Antifungal activity against Candida albicans; type: functional
Candida albicans [15] = test: Antifungal activity against Candida albicans NRRL-Y477 assessed as zone of inhibition by disc diffusion method; type: functional
Aspergillus niger [16] = test: Antifungal activity against Aspergillus niger assessed as diameter of zone inhibition; type: functional
Candida albicans [17] = test: Antifungal activity against Candida albicans assessed as diameter of zone inhibition; type: functional
Aspergillus fumigatus = test: Antifungal activity against Aspergillus fumigatus assessed as zone of inhibition; type: functional
[18] = system: Syncephalastrum racemosum; test: Antifungal activity against Syncephalastrum racemosum assessed as zone of inhibition; type: functional
Geotrichum candidum = test: Antifungal activity against Geotrichum candidum; type: functional

In the case of `Cc1cc(C)nc(Nc2ccccc2)n1` [PYRIMETHANIL], the inhibition at 50 µg/mL (Botryosphaeria dothidea) is reported as 84.4%, the inhibition at 50 µg/mL (Phomopsis) is reported as 85.1% and the inhibition at 50 µg/mL (Botrytis cinerea) is reported as 82.8%.
`Cc1nc(Oc2ccc(C(=O)Nc3ccc(OC(F)(F)F)c(Cl)c3)cc2)cc(C(F)(F)F)n1` gave an inhibition at 50 µg/mL (Botryosphaeria dothidea) of 98.5%, an inhibition at 50 µg/mL (Phomopsis) of 92% and an inhibition at 50 µg/mL (Botrytis cinerea) of 98.5%.
In the case of `O=C1CSC(c2ccccc2)N1c1nc(-c2ccccc2)cc(-c2ccccn2)n1` (stereo not given), the “inhibition zone (IZ)” value (Aspergillus flavus) is reported as 10 mm.
With `CC1=NN(c2ccccc2)C2N=C3SCCN3C(c3ccc(O)cc3)C12` (stereo not given) the “inhibition zone (IZ)” value (Candida tropicalis) was 26 mm and the “inhibition zone (IZ)” value (Aspergillus niger [1]) was 24 mm.
For `Cc1ccc(S(=O)(=O)Nc2nc(/N=N/c3c(N)nn4c(C)cc(=O)[nH]c34)cs2)cc1`, the MIC (Candida albicans [2]) was 3.12 µg/mL (≈ 7.02 µM).
Molecule `CC(=O)N1N=C(C2=C(C)NC(=O)NC2c2ccc(F)cc2)OC1c1ccccc1` (stereo not given) has an EC50 (Candida albicans [3]) of 0.15 µg/mL (≈ 0.38 µM) and an EC50 (Aspergillus niger [4]) of 0.15 µg/mL (≈ 0.38 µM).
With `Cc1nc(NC(=O)c2cc(C(F)(F)F)cc(C(F)(F)F)c2)c2c(C(F)(F)F)cc(-c3ccccc3)nc2n1` the MIC (Cryptococcus neoformans) was 12.5 µg/mL (≈ 23 µM).
`O=[N+]([O-])c1ccc(-c2nnc3c4ccc(C(F)(F)F)nc4nc(-c4ccco4)n23)cc1` was tested, and the MIC (Candida albicans [5]) was 3.9 µg/mL (≈ 9.15 µM), the MIC (Candida albicans [6]) was 3.9 µg/mL (≈ 9.15 µM) and the MIC (Candida albicans [7]) was 3.9 µg/mL (≈ 9.15 µM). It also gave an MIC (Candida albicans [8]) of 3.9 µg/mL (≈ 9.15 µM), an MIC (Candida albicans [9]) of 3.9 µg/mL (≈ 9.15 µM) and an MIC (Candida albicans [10]) of 3.9 µg/mL (≈ 9.15 µM). It also gave an MIC (Candida parapsilosis) of 3.9 µg/mL (≈ 9.15 µM), an MIC (Nakaseomyces glabratus) of 3.9 µg/mL (≈ 9.15 µM) and an MIC (Pichia kudriavzevii) of 3.9 µg/mL (≈ 9.15 µM).
With `CCOc1ccccc1/N=N/c1c(N)nc2c(/N=N/c3ccccc3OCC)cnn2c1N` the “inhibition zone (IZ)” value (Candida albicans [11]) was 21 mm.
`Cc1nc(Oc2ccc(C(=O)Nc3ccc(OC(F)(F)F)cc3)cc2)cc(C(F)(F)F)n1` was tested, and the inhibition at 50 µg/mL (Botryosphaeria dothidea) was 93.1%, the inhibition at 50 µg/mL (Phomopsis) was 89% and the inhibition at 50 µg/mL (Botrytis cinerea) was 96.7%.
In the case of `Cc1nc(NC(=O)c2cc3ccccc3o2)c2c(C(F)(F)F)cc(-c3ccccc3)nc2n1`, the MIC (Cryptococcus neoformans) is reported as 12.5 µg/mL (≈ 27.9 µM).
Molecule `O=C(Nc1ccc(F)c(Cl)c1)c1ccc(Oc2cc(C(F)(F)F)ncn2)cc1` has an inhibition at 50 µg/mL (Botrytis cinerea) of 91.7%.
`CC(=O)N(C(C)=O)N1C(=O)CC(=O)N(c2nnc(-c3cc([N+](=O)[O-])cc([N+](=O)[O-])c3)s2)C1=S` was tested, and the “inhibition zone (IZ)” value (Candida albicans [12]) was 23 mm and the “inhibition zone (IZ)” value (Aspergillus niger [13]) was 21 mm.
`COC1=CC(=O)C[C@@H](C)[C@]12Oc1c(Cl)c(OC)cc(OC)c1C2=O` [GRISEOFULVIN] was tested, and the MIC (Candida albicans [14]) was 500 µg/mL (≈ 1420 µM), the “inhibition zone (IZ)” value (Candida tropicalis) was 25 mm and the “inhibition zone (IZ)” value (Aspergillus niger [1]) was 22 mm.
With `CCOC(=O)c1c(C)nc2sc3c(SCC(=O)Nc4ccc(C)cc4)ncnc3c2c1-c1cccs1` the “inhibition zone (IZ)” value (Candida albicans [15]) was 25 mm and the “inhibition zone (IZ)” value (Aspergillus niger [1]) was 24 mm.
In the case of `C/C=C/N1CCN(c2nc3ccccc3nc2-c2cccc(C)c2)CC1`, the “inhibition zone (IZ)” value (Aspergillus niger [16]) is reported as 15 mm and the “inhibition zone (IZ)” value (Candida albicans [17]) is reported as 14 mm.
With `CCc1nnc2c(Nc3ccc(C4=NN(c5ccccc5)C(c5ccc(Cl)cc5)C4)cc3)nc3ccccc3n12` (stereo not given) the “inhibition zone (IZ)” value (Aspergillus fumigatus) was 21 mm.
For `O=C1NC(=O)C(=C2NN=C(Nc3nnc(-c4cc([N+](=O)[O-])cc([N+](=O)[O-])c4)s3)S2)C(=O)N1`, the “inhibition zone (IZ)” value (Candida albicans [12]) was 25 mm and the “inhibition zone (IZ)” value (Aspergillus niger [13]) was 23 mm.
In the case of `CCc1nnc2c(Nc3ccc(C(=O)/C=C/c4ccc(OC)cc4)cc3)nc3ccccc3n12`, the “inhibition zone (IZ)” value (Aspergillus fumigatus) is reported as 21 mm.
`Clc1ccc(C(Cn2ccnc2)OCc2csc3c(Cl)cccc23)c(Cl)c1` (stereo not given) [SERTACONAZOLE] was tested, and the “inhibition zone (IZ)” value (Aspergillus niger [16]) was 24 mm and the “inhibition zone (IZ)” value (Candida albicans [17]) was 20 mm.
`C=CCNN1CCN(c2nc3ccccc3nc2-c2cccc(C)c2)CC1` was tested, and the “inhibition zone (IZ)” value (Aspergillus niger [16]) was 14 mm and the “inhibition zone (IZ)” value (Candida albicans [17]) was 13 mm.
For `Clc1ccc(COC(Cn2ccnc2)c2ccc(Cl)cc2Cl)c(Cl)c1` (stereo not given) [MICONAZOLE], the MIC (Candida albicans [5]) was 0.39 µg/mL (≈ 0.937 µM), the MIC (Candida albicans [6]) was 0.39 µg/mL (≈ 0.937 µM) and the MIC (Candida albicans [7]) was 0.39 µg/mL (≈ 0.937 µM). It also gave an MIC (Candida albicans [8]) of 0.39 µg/mL (≈ 0.937 µM), an MIC (Candida albicans [9]) of 0.39 µg/mL (≈ 0.937 µM) and an MIC (Candida albicans [10]) of 0.39 µg/mL (≈ 0.937 µM). It also gave an MIC (Candida parapsilosis) of 0.39 µg/mL (≈ 0.937 µM), an MIC (Nakaseomyces glabratus) of 0.39 µg/mL (≈ 0.937 µM) and an MIC (Pichia kudriavzevii) of 0.39 µg/mL (≈ 0.937 µM).
In the case of `CCc1nnc2c(Nc3ccc(C4=NN(C(N)=S)C(c5ccccc5)C4)cc3)nc3ccccc3n12` (stereo not given), the “inhibition zone (IZ)” value [18] is reported as 20 mm.
Molecule `Cc1nn(-c2ccccc2)c2nc3sc4c(c3nc12)N=C(N)COC4=O` has an MIC (Geotrichum candidum) of 4 µg/mL (≈ 11 µM).
With `Cc1ccc(S(=O)(=O)Nc2nc(/N=N/c3c(N)nn4c(-c5ccc(Cl)cc5)c(C#N)c(N)nc34)cs2)cc1` the MIC (Candida albicans [2]) was 100 µg/mL (≈ 177 µM).
`CC(=O)N1N=C(C2=C(C)NC(=O)NC2c2ccc(F)cc2)OC1c1cccc([N+](=O)[O-])c1` (stereo not given) was tested, and the EC50 (Candida albicans [3]) was 0.16 µg/mL (≈ 0.364 µM) and the EC50 (Aspergillus niger [4]) was 0.16 µg/mL (≈ 0.364 µM).
`Fc1ccc(-c2nnc3c4ccc(C(F)(F)F)nc4nc(-c4ccccc4)n23)c(Cl)c1` showed an MIC (Candida albicans [5]) of 3.9 µg/mL (≈ 8.79 µM), an MIC (Candida albicans [6]) of 3.9 µg/mL (≈ 8.79 µM) and an MIC (Candida albicans [7]) of 3.9 µg/mL (≈ 8.79 µM). It also gave an MIC (Candida albicans [8]) of 3.9 µg/mL (≈ 8.79 µM), an MIC (Candida albicans [9]) of 3.9 µg/mL (≈ 8.79 µM) and an MIC (Candida albicans [10]) of 3.9 µg/mL (≈ 8.79 µM). It also gave an MIC (Candida parapsilosis) of 3.9 µg/mL (≈ 8.79 µM), an MIC (Nakaseomyces glabratus) of 3.9 µg/mL (≈ 8.79 µM) and an MIC (Pichia kudriavzevii) of 3.9 µg/mL (≈ 8.79 µM).
In the case of `Cc1ccc(S(=O)(=O)Nc2nc(/N=N/c3c(N)nn4c(N)c(C#N)nnc34)cs2)cc1`, the MIC (Candida albicans [2]) is reported as 6.25 µg/mL (≈ 13.7 µM).
Work on `Fc1ccc(-c2nnc3c4ccc(C(F)(F)F)nc4nc(-c4ccco4)n23)c(Cl)c1` yielded an MIC (Candida albicans [5]) of 3.9 µg/mL (≈ 8.99 µM), an MIC (Candida albicans [6]) of 3.9 µg/mL (≈ 8.99 µM) and an MIC (Candida albicans [7]) of 3.9 µg/mL (≈ 8.99 µM). The MIC (Candida albicans [8]) was 3.9 µg/mL (≈ 8.99 µM), the MIC (Candida albicans [9]) was 3.9 µg/mL (≈ 8.99 µM) and the MIC (Candida albicans [10]) was 3.9 µg/mL (≈ 8.99 µM). For the same molecule, the MIC (Candida parapsilosis) was 3.9 µg/mL (≈ 8.99 µM), the MIC (Nakaseomyces glabratus) was 3.9 µg/mL (≈ 8.99 µM) and the MIC (Pichia kudriavzevii) was 3.9 µg/mL (≈ 8.99 µM).
`Cc1cccc(-c2nc3ccccc3nc2N2CCN(C)CC2)c1` was tested, and the “inhibition zone (IZ)” value (Aspergillus niger [16]) was 16 mm and the “inhibition zone (IZ)” value (Candida albicans [17]) was 14 mm.

From ChEMBL document CHEMBL6103565, “Current strategies in design and synthesis of antifungals hybrid and chimeric diazine derivatives” (Bioorg Med Chem, 2025)
